Measured values taken from ChEMBL document CHEMBL3507680, “University of Dundee, Gates Library screen for HepG2 cell viability”.

experiment: Human HepG2 cell viability assay in 384 well format; type: toxicity, cell-based; set-up: dose 125 nL, time 70.5 hour; cytotoxicity at 70.5 h: concentration not given beside the values; conditions: HepG2 cells, read-out: Inhibition

| Structure (SMILES) | cytotoxicity at 70.5 h [%] |
| --- | --- |
| CNS(=O)(=O)c1csc(C(=O)N(C)Cc2ccccc2C)c1 | 0.0278 |
| CC1CCN(CC(O)CNc2ccccn2)CC1 (stereo not given) | -6.21 |
| CC1CCN(CC(O)CNc2ccc(Cl)cn2)CC1 (stereo not given) | -1.66 |
| OC(CNc1ccc(Cl)cn1)CN1CCOCC1 (stereo not given) | 2.86 |
| COc1ccc(C(C#N)NC(=O)Cc2ccc(F)c(F)c2)c(OC)c1 (stereo not given) | -3.6 |
| CCn1nc(C(C)C)cc1C(=O)N1CCOc2ccc(OC)cc21 | -5.2 |
| CC(C)Cc1nc(CS(=O)(=O)c2ccccc2)no1 | -2.63 |
| Cc1nc(CN2CCC23CCN(Cc2ccoc2)CC3)cs1 | -6.82 |
| Cc1nc(CN2CCC23CCN(Cc2ccco2)CC3)cs1 | -5.68 |
| Cc1nc(CN2CCC3(C2)CN(Cc2ccco2)C3)cs1 | -3.68 |
| Cc1ccc(CNCC2Cn3nncc3CO2)s1 (stereo not given) | -4.83 |
| COCC(=O)N1CC(C(=O)NCC2CC2)C2(CCOCC2)C1 (stereo not given) | -3.19 |
| Cc1nnc([C@@]23CCO[C@@H]2CCN(S(=O)(=O)c2ccccc2)C3)o1 | -7.57 |
| O=C1CC[C@@H]2[C@@H](CCN2S(=O)(=O)C2CC2)N1CC1CC1 | 18.2 |
| CCC(=O)N1CCC2(C=C(C(=O)N(C)C)c3ccccc32)CC1 | 14 |
| CCC(=O)N1CCC2(C=C(C(=O)N3CCCC3)c3ccccc32)CC1 | 8.56 |
| COCCN1C(=O)CC[C@@H]2[C@H]1CCN2S(=O)(=O)c1cccs1 | 20.8 |
| Cc1noc([C@]23COC[C@H]2CN(C(=O)COC2CCCC2)C3)n1 | -5.12 |
| Cc1noc([C@]23COC[C@H]2CN(C(=O)N2CCCC2)C3)n1 | -6.89 |
| O=C(NCC1CC2(CO1)CN(c1nncs1)C2)C1CCC1 (stereo not given) | -3.65 |
| Cc1ccc(N2CCc3ncnc(N(C)C)c3CC2)nn1 | -6.25 |
| COCC1c2nnn(C)c2CCN1C(=O)COc1ccccc1C (stereo not given) | -4.54 |
| COC1COC2(CCN(C(=O)c3ccc4ccccc4c3)CC2)C1 (stereo not given) | -4.73 |
| COc1ncccc1CN1Cc2nccn2CC(CN2CCCC2)C1 (stereo not given) | -2.53 |
| COc1ncccc1CN1Cc2nccn2CC(Cn2cccn2)C1 (stereo not given) | -5.37 |
| Cc1cc(CN2CC[C@H]3C[C@H](c4nc(C5CC5)cs4)O[C@@H]3C2)no1 | -4.1 |
| COCCN1C(=O)CC[C@@H]2[C@@H]1CCN2S(=O)(=O)C1CC1 | -3.21 |

| Structure (SMILES) | cytotoxicity at 70.5 h [%] |
| --- | --- |
| CCS(=O)(=O)N1CC[C@@H]2[C@H]1CCC(=O)N2CCOC | -3.05 |
| CCOCC(=O)N1C[C@@H]2COC[C@]2(c2nc(C)no2)C1 | -7.6 |
| Cc1cc(CN2CC[C@@H]3O[C@@H](c4nnc(C)o4)C[C@H]3C2)no1 | -3.3 |
| COc1cc(N2CC[C@@H]3OCCN(C)[C@H]3CC2)ncn1 | -5.78 |
| COCCN1CC[C@@H]2OC[C@H](C(=O)N(C)Cc3ccccn3)C[C@@H]2C1 | -3.83 |
| COC1COC2(CCN(C(=O)c3ccccc3F)CC2)C1 (stereo not given) | -4.84 |
| Cn1c2c(ccc1=O)CC(NC(=O)c1ccsc1)CC2 (stereo not given) | -2.29 |
| COc1cccc(CC(=O)N2CC[C@@H]3CN(C)S(=O)(=O)[C@@H]3CC2)c1 | -3.48 |
| Cc1cccc(CN2CC[C@@H]3O[C@@H](C(=O)N4CCN(C)CC4)C[C@@H]32)n1 | -1.64 |
| COCCNC(=O)C[C@@H]1COC[C@H]2CN(Cc3cccnc3)C[C@@H]12 | -0.897 |
| COCCC(=O)N1C[C@H]2CCC[C@@]2(COC)C1 | -6.36 |
| Cc1cccc(CN2CC[C@@H]3O[C@@H](C(=O)N4CCN(C)CC4)C[C@@H]32)c1 | -6.66 |
| CCn1nc(C)cc1C(=O)N1C[C@@H]2C[C@@H](c3noc(C)n3)O[C@@H]2C1 | -6.34 |
| c1c(CN2CCOCC2)nc2n1CCN(C1CCOCC1)C2 | -1.69 |
| CC(C)CNC(=O)C1=NOC2(CCN(Cc3cccc(C#N)c3)C2)C1 (stereo not given) | -1.8 |
| c1ccc(C[C@H]2CN(Cc3nccs3)CC[C@H]2OCC2CC2)cc1 | -11.5 |
| COCCn1c2c(ccc1=O)CC(NS(C)(=O)=O)CC2 (stereo not given) | 16 |
| CC(C)Nc1nc(N2CCOCC2)nc2c1CN(CC(=O)N(C)C)CC2 | 26.3 |
| O=C(N1CCCC1)N1CCN(CC2CC2)c2ncccc2C1 | 6.34 |
| c1ccc(OC[C@H]2CCC[C@]23CN(Cc2nccs2)CCO3)nc1 | -4.23 |
| CC(=O)N1CCn2cc(CNC(=O)c3cccn3C)nc2C1 | -10.7 |
| CCOC[C@@H]1CCC[C@@]12CN(Cc1nccs1)CCO2 | 0.476 |
| COCCC1COC2(CCN(C(=O)c3ccco3)CC2)C1 (stereo not given) | -5.74 |
| CC(C)Oc1ncnc2c1CCN(C(=O)c1cccn1C)CC2 | 7.42 |
| CC(=O)N1CCC2(CCCN(C(=O)c3ccccc3)C2)C1 (stereo not given) | 6.68 |
| O=C(N1CCCC1)N1CCc2ncnc(C3CCOC3)c2CC1 (stereo not given) | -9.08 |
| COCCC(=O)N1CCC2(COCc3c(C)nc(NCC4CC4)nc32)C1 (stereo not given) | -4.97 |

| Structure (SMILES) | cytotoxicity at 70.5 h [%] |
| --- | --- |
| O=C(CC1CC1)N1CCC2(CC1)CN(c1ncccn1)CCO2 | -7.66 |
| Cc1ncsc1CN1CC[C@H]2C(=O)N(c3ccccc3)CCO[C@H]2C1 | -9.01 |
| CS(=O)(=O)NCc1cn2c(n1)CN(C(=O)c1ccc[nH]1)CC2 | -9.01 |
| CN(Cc1ccccn1)C1COC2(CCN(Cc3cccnc3)CC2)C1 (stereo not given) | 24.4 |
| COc1ccc(C(=O)N2Cc3c(Cn4ccnc4)nn(C)c3C2)cc1 | -8.74 |
| O=C1[C@@H]2CCN(Cc3ccncc3)C[C@@H]2OCCN1c1ccccc1 | -8.52 |
| Cc1occc1C(=O)N1CCC2(CC1)C(c1cnn(C)c1)CC(=O)N2C (stereo not given) | 4.52 |
| C[C@H]1C[C@@H]2CCN(Cc3ccccn3)C[C@H]2O1 | -0.0314 |
| c1cnc(N2CCCC3(CCN(Cc4ccncc4)C3)C2)nc1 (stereo not given) | -13.2 |
| O=C(c1cscn1)N1CCC2(CCN(Cc3nccs3)C2)CC1 | -12.2 |
| CN(C)C(=O)CN1CCc2ncnc(N(C)C)c2CC1 | -6.04 |
| COCC1c2c(cnn2C)CCN1C(=O)c1cccn1C (stereo not given) | -6.36 |
| O=C(NCC1CC2(CO1)CN(Cc1cccs1)C2)C1CCC1 (stereo not given) | 19.9 |
| Cc1ccc(CN2Cc3nccn3CC(Cn3cccn3)C2)s1 (stereo not given) | -4.41 |
| CC(=O)N1CCO[C@@H]2CN(Cc3ccccc3Cl)C[C@@H]2C1 | -5.68 |
| Cc1noc([C@]23COC[C@H]2CN(C(=O)CN(C)C)C3)n1 | -4.74 |
| CC(C)C(=O)N1CCCC2(C1)CN(c1nncs1)CCO2 (stereo not given) | -2.65 |
| COCCN1CCCCC12CC(=O)N(c1cccc(C#N)c1)C2 (stereo not given) | -4.04 |
| Cn1cncc1CN1CCC2(CC1)COCCN(S(C)(=O)=O)C2 | -8.74 |
| CCC(=O)N1CCC2(CC1)C(=O)N(C)CCN2Cc1csc(C)n1 | -4.08 |
| O=C([C@H]1CC[C@@H]2[C@@H](CCN2C2CCCC2)O1)N1CCOCC1 | -12.8 |
| c1csc(CN2CCn3c(Cn4cncn4)cnc3C2)n1 | -17.2 |
| COCCC(=O)N1CC2(CCN(Cc3cccc(Cl)c3)CC2)C1 | -8.68 |
| O=C(N1CCCC1)N1CCO[C@H]2[C@@H](Oc3ccccn3)CC[C@@H]21 | -6.73 |
| Cc1ccc(CN2CCCC3(CCN(S(C)(=O)=O)C3)C2)o1 (stereo not given) | -10.2 |
| Cn1nnc2c1CCN(Cc1nccs1)C2COCc1ccccc1 (stereo not given) | -2.36 |
| O=C(C1=CCCC1)N1CCO[C@H]2[C@@H](Oc3ccccn3)CC[C@@H]21 | -0.715 |

| Structure (SMILES) | cytotoxicity at 70.5 h [%] |
| --- | --- |
| Cn1cc(C[C@H]2[C@H](N3CCOCC3)CCN2C(=O)c2ccco2)cn1 | 5.32 |
| O=C(c1ccc[nH]1)N1CCn2cc(CN3CCCC3)nc2C1 | -8.96 |
| O=C(c1cccnc1)N1CCc2ncnc(C3CCOC3)c2CC1 (stereo not given) | -7.71 |
| Cc1cc(CN2CC[C@H]3C(=O)N(c4ccccc4)CCO[C@H]3C2)no1 | 23.6 |
| O=C(c1cccc(Cl)c1)N1CC[C@H]2[C@H]1CCN2CC1CCOCC1 | -8.99 |
| COc1ccc(CN2CC[C@H]3[C@H]2CCN3C(=O)c2cnn(C)c2)cc1 | -0.0414 |
| NC(=O)N1C[C@H]2CN(Cc3nccs3)C[C@H]2C1 | -18.2 |
| O=C1[C@H]2CN(CC3CC3)C[C@H]2CN1Cc1cccc(F)c1 | -7.25 |
| CN(C)c1ncnc2c1CCN(CC1CCOC1)CC2 (stereo not given) | -14.4 |
| Cn1ccnc1CN1CCC2(CC(=O)N(c3cncnc3)C2)C1 (stereo not given) | -14.3 |
| Cn1cc(C(=O)N2CC[C@@H]3[C@@H]2CCN3Cc2cccc(F)c2)cn1 | -6.38 |
| Cn1ccc(CN2CCC3(CCCN3CC3CC3)CC2)n1 | -6.07 |
| Cn1cc(CN2C[C@H]3CCC[C@@]3(COc3ccccn3)C2)cn1 | -3.17 |
| CN(Cc1ccccn1)C(=O)[C@H]1CO[C@H]2CCN(CC3CC3)C[C@H]2C1 | -5.92 |
| O=C(C[C@@H]1COC[C@H]2CN(C3CCC3)C[C@@H]12)NCc1cccnc1 | -16.6 |
| C[C@H]1CN(c2ccccn2)C[C@@]12CCN(c1cccnc1)C2=O | -2.67 |
| CC(C)N1CC[C@H]2[C@H](C[C@@H](Cn3cncn3)N2c2nccs2)C1 | -6.46 |
| c1ccc(CN2CC[C@@H]3O[C@@H](COCC4CCOCC4)CC[C@@H]32)nc1 | -14.4 |
| O=C(NC1CCCC1)[C@@H]1CN(Cc2nccs2)C[C@H]2OCC[C@H]21 | 33.7 |
| Fc1cnc(N2CCCC3(CN(Cc4ccncc4)CCO3)C2)nc1 (stereo not given) | -6.32 |
| O=C(NC[C@]12COC[C@H]1CN(Cc1ccncc1)C2)c1ccco1 | -10.9 |
| Cn1cc(N2CCC3(CCN(Cc4cccnc4)C3)C2=O)cn1 (stereo not given) | -17.1 |
| Cc1nc(CN2CCC3(CC2)C(=O)N(C)CCN3C)cs1 | -4.7 |
| Fc1cccc(N2CCCC3(CN(Cc4ccncc4)CCO3)C2)c1 (stereo not given) | -4.69 |
